Test results from PMC9736856, “Biological Investigation and Chemical Study of Brassica villosa subsp. drepanensis (Brassicaeae) Leaves” (Molecules, 2022).
Values belong to the compound of their own block, whether it stands above or below them.

What was measured:
[1] = ABTS radical-scavenging assay; settings: cell free
Procedure: In this assay, a solution of ABTS radical cations was mixed with a potassium persulphate solution and stored at room temperature for 12 h. The obtained solution was diluted with ethanol, read to obtain an absorbance of 0.70 at 734 nm, and added to the tested sample (1–400 μg/mL). After 6 min, the absorbance was read at 734 nm. Ascorbic acid was the positive control. The ABTS radical-scavenging ability was calculated with this equation: [(A0−A1)/A0] × 100, where A0 is the absorbance of the control and A1 is the absorbance in the presence of the samples.

[2] = β-carotene bleaching test
Procedure: The β-carotene bleaching test was performed following the procedure previously described, using propyl gallate as the positive control. […] The microplate was located in a water bath at 45 °C and the absorbance was read at 470 nm against a blank at t = 0 and after 30 and 60 min of incubation.

[3] = DPPH test; settings: positive control
Procedure: Free radical-scavenging capacity was analysed through the ability of the total extract and the fractions to bleach the stable radical DPPH. […] Briefly, after 10 min at room temperature, the absorbance at λ = 517 nm of the DPPH reaction mixture containing different concentrations of […] extract (125-1000 μg/mL) in 1 mL of ethanol was recorded. Results, expressed as decrease in absorbance, represent the average ± S.D. of three independent experiments.

[4] = test system: CaCo-2 cells; experiment: MTT assay, CaCo-2; assay type: cell-based; settings: Homo sapiens, read-out: IC50 (MTT, cytotoxicity standard)
Procedure: The human foreskin fibroblast cell line HFF-1 (ATCC® SCRC-1041.1) was maintained in DMEM supplemented with 15% v/v foetal bovine serum (FBS), 4.5 g/L glucose, 100 U/mL penicillin, and […] streptomycin. HFF-1 was used as an in vitro human model for preliminary toxicity screening. Mouse leukemic monocyte-macrophage cells RAW 264.7 (Sigma-Aldrich 91062702) were cultured in EMEM supplemented with 2 mM L-Glutamine (Euroclone, Milan, Italy), 1% non-essential amino acids, 10% FBS, and penicillin/streptomycin/amphotericin. […] was used as an in vitro model of LPS-induced inflammation. Human colon carcinoma cells CaCo-2 (ATCC®, HTB-37) were cultured in DMEM supplemented with 10% FBS, 1 mmol/L sodium pyruvate, 2 mmol/L L-glutamine, streptomycin ([…]), and penicillin (50 U/mL). […]
HFF-1, RAW 264.7, CaCo-2, DU145, 1321N1, and U87 MG cells were treated with different concentrations of total extract (25–50–100–150–250–500–1000 μg/mL), while RAW 264.7 cells were also treated with the fractions obtained from the total extract (EtOAc, n-BuOH, and H2O) at the same concentrations (25–50–100–150–250–500–1000 μg/mL) for 24 h. […] The absorbance of the converted formazan was measured using a microplate spectrophotometer reader (Titertek Multiskan, Flow Laboratories, Helsinki, Finland) at λ = 570 nm. […]

[5] = SOD-like activity (superoxide anion scavenging, NADH oxidation); settings: positive control
Procedure: The scavenger effect of B. drepanensis extract and the fractions on superoxide anions was recorded as a decrease in absorbance at λ = 340 nm, as previously reported by Salerno et al.. […] SOD (80 mU) was used as a reference compound.

ABTS Test IC50 [1]: 1.73 ± 0.06 µg/mL
Compound: O=C1O[C@H]([C@@H](O)CO)C(O)=C1O [Ascorbic acid, ascorbic acid]

β-Carotene Bleaching Test IC50 ([2]; after 30 min of incubation): 0.09 ± 0.04 µg/mL
β-Carotene Bleaching Test IC50 ([2]; after 60 min of incubation): 0.09 ± 0.04 µg/mL
Compound: CCCOC(=O)c1cc(O)c(O)c(O)c1 [Propyl gallate, propyl gallate]

SOD-like Activity IC50 [5]: 40 mU ± 0.85
Compound: superoxide dismutase [SOD]

Continued, compound first:

Compound: Cc1c(C)c2c(c(C)c1O)CCC(C)(C(=O)O)O2 (stereo not drawn) [Trolox]
IC50 [3]: 15 µM

Compound: COc1cccc2c1C(=O)c1c(O)c3c(c(O)c1C2=O)C[C@@](O)(C(=O)CO)C[C@@H]3O[C@H]1C[C@H](N)[C@H](O)[C@H](C)O1 [doxorubicin, Doxorubicin]
IC50 [4]: 21 ± 0.3 µM
